Data published in patent US10688084B2 (priority 2016, dated 2020).
Read-outs that look alike come from different tables or passages of the source.

Experiments:
[1] = tested on: Wistar rats; assay: Acute (carrageenin) paw edema, anti-inflammatory activity in vivo; set-up: species or system rat; details: for ED50: Rattus norvegicus, read-out: ED50 acute inflammation; for Paw volume 0 / Paw volume 3 h: in mL (unit assumed); for Anti-inflammatory effect, %: control = 100.00
Method: The experiment was carried out using female and male Wistar rats aged 6-7 weeks with a body mass of 180-220 g. The number of animals in each group was 10.
The acute inflammatory reaction (edema) was reproduced by subplantar (under plantar or plantar aponeurosis) administration of 0.1 ml of 1% carrageenin solution (sulfated polysaccharide from Irish sea moss). The severity of the inflammatory reaction was assessed 3 hours after the induction of inflammation by a change in the volume of the paw (oncometric). The substance of formula I was administered into the stomach with the probe 1 hour before the introduction of the 1% solution of carrageenin. A 0.5% Tween-80 solution was used as a negative control. The anti-inflammatory effect, assessed by a decrease in edema, was expressed as a percentage of the control. According to the results of the action of four doses of the analyte, the calculation of ED50 was performed.
The introduction to rats was carried out in the amount of no more than 1 ml/100 g. The concentration of the resulting solution was 5 mg/ml.
Animals were euthanized by inhalation of carbon dioxide.

[2] = tested on: Wistar rats; assay: Gastric toxicity (ulcerogenic effect), single intragastric administration, 4-point scale; format: in vivo, rat; details: for Gastrotoxic effect (averaged), points: 2000 mg/kg single intragastric, 3 hours
Method: In the study of gastric toxicity were taken female and male Wistar rats aged 6-7 weeks, with a body mass of 180-220 g. The number of animals in each group was 10.
Three hours after the administration of the suspension of the test substance at a dose of 2000 mg/kg (in 0.5% aqueous solution of Tween-80), the animals were euthanized; their stomachs were removed, dissected along the lesser curvature, and washed in physiological solution to remove the contents.
Evaluation of gastric toxicity was performed on a 4-point scale:
1—single minor injuries (1 or 2 point hemorrhages);
2—multiple injuries (erosion, spot hemorrhages);
3—significant and multiple injuries of the mucosa (erosion, hemorrhage);
4—gross injuries covering the entire surface of the mucosa (massive hemorrhages, erosion, perforations).
According to the results of the assessment, UD50 was determined—the dose of the tested substance causing gastrotoxic (ulcerogenic) effect corresponding to 2 points.
The introduction to rats is carried out in the amount of no more than 5 ml/200 g.
Animals were euthanized by carbon dioxide inhalation method.
At a single introduction of formula I compound at a dose of 2000 mg/kg, the gastrotoxic effect corresponded to an average of 0.6 points in male rats and 0.4 in females (Table 4).

[3] = tested on: Wistar rats; format: in vivo
Method: In the study of antipyretic properties of the formula I compound, were taken female and male Wistar rats aged 6-7 weeks, with a body mass of 180-220 g. The number of animals in each group was 10.
The febrile reaction was caused by subcutaneous administration of a 20% suspension of baking yeast. The rectal temperature was measured with an electrothermometer prior to the introduction of yeast and 18 hours after it (the difference of these measurements is the estimated hyperthermic reaction). The preparation was administered to animals at the peak of hyperthermia once (after 18 hours). The antipyretic effect was evaluated by hyperthermia decrease 2 hours after the injection of the test substance, and then the effect dynamics was recorded at hourly intervals for 7 hours.
The introduction to rats was carried out in the amount of no more than 1 ml/100 g. The concentration of the resulting solution was 7.5 mg/ml.
The difference in temperature after preparation administration and after 18 hours of induction with yeast was taken as the parameter of hyperthermia decrease.
Animals were observed individually after administration throughout the study. […] Wilcoxon nonparametric criterion was used for statistical comparison of experimental groups. Differences were determined at the 0.05 level of significance. The statistical analysis was carried out using the R-studio program.

[4] = mean value without sex distinction
[5] = female rats, 5 mg/kg intragastric
[6] = female rats, 10 mg/kg intragastric
[7] = female rats, 20 mg/kg intragastric
[8] = female rats, 50 mg/kg intragastric
[9] = male rats, 5 mg/kg intragastric
[10] = male rats, 10 mg/kg intragastric
[11] = male rats, 20 mg/kg intragastric
[12] = male rats, 50 mg/kg intragastric

## COc1ccc2cc([C@H](C)C(=O)OCc3cnc(C)c(OC(=O)[C@@H](C)c4ccc5cc(OC)ccc5c4)c3COC(=O)[C@@H](C)c3ccc4cc(OC)ccc4c3)ccc2c1 [Compound of formula I, 3-((S)-2-(6-methoxynaphth-2-yl)propanoiloxy)-4,5-bis (((S)-2-(6-methoxinaphtht-2-yl)propanoiloxy)methyl)-2-methylpyridinium (S)-2-(6-methoxynaphth-2-yl) propanoate]
[1]; females
  ED50: 14 mg/kg
[1]; males
  ED50: 23 mg/kg
[1]; [4]
  ED50: 18.5 mg/kg
  ED50 acute inflammation: 19 mg/kg
[1]; female rats, 5 mg/kg
  Inflammatory edema decreased by, vs control group: 13.37%
  Anti-inflammatory effect, %: 86.63 ± 17.71%
[1]; [5]
  Paw volume 0: 1.00 ± 0.03
  Paw volume 3 h: 1.94 ± 0.20
[1]; female rats, 10 mg/kg
  Inflammatory edema decreased by, vs control group: 38.64%
  Anti-inflammatory effect, %: 61.36 ± 17.12%
[1]; [6]
  Paw volume 0: 0.96 ± 0.06
  Paw volume 3 h: 1.60 ± 0.16
[1]; female rats, 20 mg/kg
  Inflammatory edema decreased by, vs control group: 67.89%
  Anti-inflammatory effect, %: 32.11 ± 15.06%
[1]; [7]
  Paw volume 0: 0.91 ± 0.09
  Paw volume 3 h: 1.23 ± 0.20
[1]; female rats, 50 mg/kg
  Inflammatory edema decreased by, vs control group: 65.47%
  Anti-inflammatory effect, %: 34.53 ± 18.52%
[1]; [8]
  Paw volume 0: 0.91 ± 0.05
  Paw volume 3 h: 1.26 ± 0.23
[1]; male rats, 5 mg/kg
  Inflammatory edema decreased by, vs control group: 12.39%
  Anti-inflammatory effect, %: 87.61 ± 19.75%
[1]; [9]
  Paw volume 0: 0.89 ± 0.07
  Paw volume 3 h: 1.87 ± 0.21
[1]; male rats, 10 mg/kg
  Inflammatory edema decreased by, vs control group: 23.57%
  Anti-inflammatory effect, %: 76.43 ± 22.74%
[1]; [10]
  Paw volume 0: 0.93 ± 0.06
  Paw volume 3 h: 1.84 ± 0.23
[1]; male rats, 20 mg/kg
  Inflammatory edema decreased by, vs control group: 51.25%
  Anti-inflammatory effect, %: 48.75 ± 16.39%
[1]; [11]
  Paw volume 0: 0.93 ± 0.05
  Paw volume 3 h: 1.51 ± 0.16
[1]; male rats, 50 mg/kg
  Inflammatory edema decreased by, vs control group: 62.34%
  Anti-inflammatory effect, %: 37.66 ± 19.16%
[1]; [12]
  Paw volume 0: 1.04 ± 0.20
  Paw volume 3 h: 1.54 ± 0.45
[2]; females
  UD50: >2000 mg/kg
  Gastrotoxic effect (averaged), points: 0.4 points
[2]; males
  UD50: >2000 mg/kg
  Gastrotoxic effect (averaged), points: 0.6 points
[2]; vs naproxen
  Times less gastrotoxic than naproxen (UD50): 40 times
[2]; without sex distinction
  UD50: >2000 mg/kg
[2]; without sex distinction, listed as compound of formula I
  UD50: > 2000 mg/kg
[3]; 20 mg/kg, both males and females
  Antipyretic action: no antipyretic action was observed
[3]; 20 mg/kg, females
  Δ t after 2 hours, (M ± SD): −0.07
  Δ t after 3 hours, (M ± SD): −0.27
  Δ t after 4 hours, (M ± SD): −0.35
  Δ t after 5 hours, (M ± SD): 0.34
  Δ t after 6 hours, (M ± SD): −0.01
  Δ t after 7 hours, (M ± SD): −0.08
[3]; 20 mg/kg, males
  Δ t after 2 hours, (M ± SD): 0.13
  Δ t after 3 hours, (M ± SD): 0.24
  Δ t after 4 hours, (M ± SD): 0.02
  Δ t after 5 hours, (M ± SD): 0.1
  Δ t after 6 hours, (M ± SD): −0.21
  Δ t after 7 hours, (M ± SD): 0.04
[3]; 50 mg/kg, 3-4 hours after administration
  Level of temperature decrease: 0.34-0.97 °C
[3]; 50 mg/kg, females
  Δ t after 2 hours, (M ± SD): 0.87
  Δ t after 3 hours, (M ± SD): 0.91
  Δ t after 4 hours, (M ± SD): 0.66
  Δ t after 5 hours, (M ± SD): 0.53
  Δ t after 6 hours, (M ± SD): 0.61
  Δ t after 7 hours, (M ± SD): 0.5
[3]; 50 mg/kg, females, 2 and 3 hours after introduction
  Temperature lower than before the introduction by: 0.9 °C
[3]; 50 mg/kg, females, 4, 5, 6 and 7 hours after introduction
  Temperature decrease: 0.5-0.7 °C
[3]; 50 mg/kg, males
  Δ t after 2 hours, (M ± SD): 0.22
  Δ t after 3 hours, (M ± SD): 0.36
  Δ t after 4 hours, (M ± SD): 0.39
  Δ t after 5 hours, (M ± SD): 0.25
  Δ t after 6 hours, (M ± SD): 0.11
  Δ t after 7 hours, (M ± SD): 0.09
[3]; 75 mg/kg, females
  Δ t after 2 hours, (M ± SD): 0.9
  Δ t after 3 hours, (M ± SD): 0.96
  Δ t after 4 hours, (M ± SD): 1.39
  Δ t after 5 hours, (M ± SD): 1.52
  Δ t after 6 hours, (M ± SD): 1.51
  Δ t after 7 hours, (M ± SD): 1.17
[3]; 75 mg/kg, males
  Δ t after 2 hours, (M ± SD): 0.76
  Δ t after 3 hours, (M ± SD): 1.15
  Δ t after 4 hours, (M ± SD): 1.38
  Δ t after 5 hours, (M ± SD): 1.31
  Δ t after 6 hours, (M ± SD): 0.96
  Δ t after 7 hours, (M ± SD): 0.92
[3]; 75 mg/kg, throughout the experiment
  Temperature less than before the introduction for: 0.76-1.5 °C
